The record followed here is BindingDB's records for doi:10.1021/jm00110a017 (Institutions, 1991).

The structures appear in SMILES notation.

A short description of the assay: Displacement of [3H]DTG from sigma opioid receptor of homogenized guinea pig whole brain.
A word on the IC50: it is the concentration needed to halve the response being measured. Low values mean inhibition by little substance, high ones a need for much substance. Compound `COc1ccc(N=C(N)NC23CC4CC(CC(C4)C2)C3)c(C)c1` had an IC50 of 7 nM.

For `COc1ccccc1N=C(N)NC12CC3CC(CC(C3)C1)C2`, the IC50 was 17 nM.

For `Cc1cc(F)ccc1N=C(N)NC12CC3CC(CC(C3)C1)C2`, the 50% inhibitory concentration (IC50) was determined as 3.2 nM.

On to `NC(=NC12CC3CC(CC(C3)C1)C2)Nc1cccc(I)c1`, for which the IC50 worked out at 8 nM.

Regarding `COc1cccc(NC(N)=NC23CC4CC(CC(C4)C2)C3)c1`, the IC50 was found to be 7 nM.

`NC(=Nc1ccccc1I)NC12CC3CC(CC(C3)C1)C2` registered an IC50 of 6.2 nM.

`COc1ccc(NC(N)=NC23CC4CC(CC(C4)C2)C3)cc1` showed an IC50 of 10 nM.
